Measured values published in DBAASP.
Converted amounts (≈) assume the structure as drawn.

What was measured:
Assay in all cases: ≥ marks a high value that may be exact or a test limit, other limits are often not marked, values filed in µg/mL are converted to µM
[1] = system: Staphylococcus aureus ATCC 29213
[2] = system: Escherichia coli ATCC 25922
Escherichia coli = system: Escherichia coli
Staphylococcus aureus = system: Staphylococcus aureus
[3] = system: Pseudomonas aeruginosa ATCC 27853
[4] = system: Staphylococcus epidermidis ATCC 12228

MIC [1] [µM]	MIC [2] [µM]	MIC (Escherichia coli) [µM]	MIC (Staphylococcus aureus) [µM]	MIC [3] [µM]	MIC [4] [µM]	SMILES
> 40	10 (≈ 28.3 µg/mL)	20 (≈ 56.5 µg/mL)	–	–	–	CC[C@H](C)[C@H](NC(=O)CN)C(=O)NCC(=O)N[C@@H](C)C(=O)N[C@H](C(=O)N[C@@H](CC(C)C)C(=O)N[C@@H](CCCCN)C(=O)N[C@H](C(=O)N[C@@H](CC(C)C)C(=O)N[C@H](C(=O)N[C@H](C(=O)NCC(=O)N[C@@H](CC(C)C)C(=O)N1CCC[C@H]1C(=O)N[C@@H](C)C(=O)N[C@@H](CS)C(=O)N[C@H](C(=O)N[C@@H](CO)C(=O)N[C@@H](Cc1c[nH]c2ccccc12)C(=O)N[C@@H](CS)C(=O)N[C@@H](CCCCN)C(=O)N[C@@H](CCCN=C(N)N)C(=O)N[C@@H](CCCCN)C(=O)N[C@@H](CCCN=C(N)N)C(=O)N[C@@H](CCC(N)=O)C(=O)N[C@@H](CCC(N)=O)C(=O)O)[C@@H](C)CC)[C@@H](C)O)[C@@H](C)O)C(C)C)C(C)C [GIGAVLKVLTTGLPACISWCKRKRQQ]
10 (≈ 17.8 µg/mL)	10 (≈ 17.8 µg/mL)	–	–	–	–	CC(C)C[C@H](NC(=O)[C@H](C)NC(=O)[C@H](CCCCN)NC(=O)[C@H](CC(C)C)NC(=O)[C@H](CC(C)C)NC(=O)[C@H](CCCCN)NC(=O)[C@H](CCCCN)NC(=O)[C@@H](N)CC(C)C)C(=O)N[C@@H](CCCCN)C(=O)N[C@@H](CCCCN)C(=O)N[C@@H](CC(C)C)C(=O)N[C@@H](CC(C)C)C(=O)N[C@@H](CCCCN)C(=O)N[C@@H](CC(C)C)C(=O)N[C@@H](C)C(=O)NCC(=O)O [LKKLLKALKKLLKLAG]
–	2.83 (≈ 5.3 µg/mL)	10.7 (≈ 20 µg/mL)	2.66 (≈ 5 µg/mL)	–	–	CC(C)C[C@H](NC(=O)[C@H](Cc1ccccc1)NC(=O)[C@H](C)NC(=O)[C@H](Cc1c[nH]c2ccccc12)NC(=O)[C@H](Cc1c[nH]c2ccccc12)NC(=O)[C@H](Cc1c[nH]c2ccccc12)NC(=O)[C@@H]1CCCN1C(=O)[C@H](Cc1ccccc1)NC(=O)[C@H](CCCN=C(N)N)NC(=O)[C@H](CCCN=C(N)N)NC(=O)[C@@H](N)C(C)C)C(=O)N[C@@H](CCCN=C(N)N)C(=O)N[C@@H](CCCN=C(N)N)C(N)=O [VRRFPWWWAFLRR]
40 (≈ 68.7 µg/mL)	40 (≈ 68.7 µg/mL)	–	–	–	–	CC(=O)N[C@@H](CCCCN)C(=O)N[C@@H](CC(C)C)C(=O)N[C@@H](CC(C)C)C(=O)N[C@@H](CCCCN)C(=O)N[C@@H](CC(C)C)C(=O)N[C@@H](CC(C)C)C(=O)N[C@@H](CCCCN)C(=O)N[C@@H](CCCCN)C(=O)N[C@@H](CC(C)C)C(=O)N1CCC[C@H]1C(=O)N[C@@H](CCCCN)C(=O)N[C@@H](CC(C)C)C(=O)N[C@@H](CC(C)C)C(=O)N[C@@H](CCCCN)C(N)=O [KLLKLLKKLPKLLK]
10 (≈ 17.2 µg/mL)	10 (≈ 17.2 µg/mL)	–	–	–	–	CC(=O)N[C@@H](CCCCN)C(=O)N[C@@H](CC(C)C)C(=O)N1CCC[C@H]1C(=O)N[C@@H](CCCCN)C(=O)N[C@@H](CC(C)C)C(=O)N[C@@H](CC(C)C)C(=O)N[C@@H](CCCCN)C(=O)N[C@@H](CCCCN)C(=O)N[C@@H](CC(C)C)C(=O)N[C@@H](CC(C)C)C(=O)N[C@@H](CCCCN)C(=O)N[C@@H](CC(C)C)C(=O)N[C@@H](CC(C)C)C(=O)N[C@@H](CCCCN)C(N)=O [KLPKLLKKLLKLLK]
14.1 (≈ 24.5 µg/mL)	14.1 (≈ 24.5 µg/mL)	–	–	–	–	CC(=O)N[C@@H](CC(C)C)C(=O)N[C@@H](CCCCN)C(=O)N[C@@H](CCCCN)C(=O)N[C@@H](CC(C)C)C(=O)N[C@@H](CC(C)C)C(=O)N[C@@H](CCCCN)C(=O)N[C@@H](CC(C)C)C(=O)N[C@@H](CC(C)C)C(=O)N[C@@H](CCCCN)C(=O)N[C@@H](CCCCN)C(=O)N[C@@H](CC(C)C)C(=O)N[C@@H](CC(C)C)C(=O)N[C@@H](CCCCN)C(=O)N[C@@H](CC(C)C)C(N)=O [LKKLLKLLKKLLKL]
40 (≈ 72.1 µg/mL)	20 (≈ 36 µg/mL)	–	–	80 (≈ 144 µg/mL)	–	NCC(=O)N[C@@H](CCCN=C(N)N)C(=O)N[C@@H](CCCN=C(N)N)C(=O)N1CCC[C@H]1C(=O)N[C@@H](CCCN=C(N)N)C(=O)N1CCC[C@H]1C(=O)N[C@@H](CCCN=C(N)N)C(=O)N1CCC[C@H]1C(=O)N[C@@H](CCCN=C(N)N)C(=O)N1CCC[C@H]1C(=O)N[C@@H](Cc1c[nH]c2ccccc12)C(=O)N[C@@H](Cc1c[nH]c2ccccc12)C(=O)N[C@@H](Cc1c[nH]c2ccccc12)C(N)=O [GRRPRPRPRPWWW]
7.07 (≈ 12.1 µg/mL)	7.07 (≈ 12.1 µg/mL)	–	–	–	–	CC(=O)N[C@@H](CCCCN)C(=O)N1CCC[C@H]1C(=O)N[C@@H](CC(C)C)C(=O)N[C@@H](CCCCN)C(=O)N[C@@H](CC(C)C)C(=O)N[C@@H](CC(C)C)C(=O)N[C@@H](CCCCN)C(=O)N[C@@H](CCCCN)C(=O)N[C@@H](CC(C)C)C(=O)N[C@@H](CC(C)C)C(=O)N[C@@H](CCCCN)C(=O)N[C@@H](CC(C)C)C(=O)N[C@@H](CC(C)C)C(=O)N[C@@H](CCCCN)C(N)=O [KPLKLLKKLLKLLK]
40 (≈ 66.4 µg/mL)	7.07 (≈ 11.7 µg/mL)	–	–	–	–	CC(=O)N[C@@H](CC(C)C)C(=O)N[C@@H](CCCCN)C(=O)N[C@@H](CCCCN)C(=O)N1CCC[C@H]1C(=O)N[C@@H](CC(C)C)C(=O)N[C@@H](CCCCN)C(=O)N[C@@H](CC(C)C)C(=O)NCC(=O)N[C@@H](CCCCN)C(=O)N[C@@H](CCCCN)C(=O)N[C@@H](CC(C)C)C(=O)N[C@@H](CC(C)C)C(=O)N[C@@H](CCCCN)C(=O)N[C@@H](CC(C)C)C(N)=O [LKKPLKLGKKLLKL]
10 (≈ 17.8 µg/mL)	10 (≈ 17.8 µg/mL)	–	–	–	–	CC(C)C[C@H](NC(=O)[C@H](CCCCN)NC(=O)[C@H](CC(C)C)NC(=O)[C@H](CC(C)C)NC(=O)[C@H](CCCCN)NC(=O)[C@H](CCCCN)NC(=O)[C@H](CC(C)C)NC(=O)[C@H](CC(C)C)NC(=O)[C@H](CCCCN)NC(=O)[C@H](C)NC(=O)[C@H](CC(C)C)NC(=O)[C@H](CCCCN)NC(=O)[C@H](CCCCN)NC(=O)[C@@H](N)CC(C)C)C(=O)N[C@@H](C)C(=O)NCC(=O)O [LKKLAKLLKKLLKLAG]
–	> 80	–	–	–	10 (≈ 26.8 µg/mL)	CC[C@H](C)[C@H](NC(=O)CN)C(=O)N[C@@H](CCCCN)C(=O)N[C@@H](CCCCN)C(=O)N[C@@H](Cc1c[nH]c2ccccc12)C(=O)N[C@@H](CC(C)C)C(=O)N[C@@H](Cc1cnc[nH]1)C(=O)N[C@@H](CO)C(=O)N1CCC[C@H]1C(=O)N[C@@H](CCCCN)C(=O)N[C@@H](CCCCN)C(=O)N1CCC[C@H]1C(=O)NCC(=O)N[C@@H](CCCCN)C(=O)N[C@@H](CCCCN)C(=O)N[C@@H](Cc1ccccc1)C(=O)N[C@H](C(=O)N[C@@H](CCCCN)C(=O)N[C@@H](CCCCN)C(=O)N[C@H](C(=O)N[C@@H](CCSC)C(=O)N[C@@H](CC(N)=O)C(=O)N[C@@H](CO)C(N)=O)[C@@H](C)CC)C(C)C [GIKKWLHSPKKPGKKFVKKIMNS]
–	2 (≈ 3.7 µg/mL)	5.4 (≈ 9.99 µg/mL)	2.7 (≈ 5 µg/mL)	–	–	CC(C)C[C@H](NC(=O)[C@H](Cc1ccccc1)NC(=O)[C@H](C)NC(=O)[C@H](Cc1c[nH]c2ccccc12)NC(=O)[C@H](Cc1c[nH]c2ccccc12)NC(=O)[C@H](Cc1c[nH]c2ccccc12)NC(=O)[C@H](C)NC(=O)[C@H](Cc1ccccc1)NC(=O)[C@H](CCCN=C(N)N)NC(=O)[C@H](CCCN=C(N)N)NC(=O)[C@@H](N)C(C)C)C(=O)N[C@@H](CCCN=C(N)N)C(=O)N[C@@H](CCCN=C(N)N)C(N)=O [VRRFAWWWAFLRR]
> 52.2	26.1 (≈ 32 µg/mL)	–	–	26.1 (≈ 32 µg/mL)	–	CC[C@H](C)[C@H](NC(=O)[C@H](CCCN=C(N)N)NC(=O)[C@H](CCCCN)NC(=O)[C@@H](N)CCC(N)=O)C(=O)N[C@@H](CCCN=C(N)N)C(=O)N[C@H](C(=O)N[C@@H](CCCN=C(N)N)C(=O)N[C@@H](CC(C)C)C(=O)N[C@@H](CO)C(=O)N[C@@H](C)C(=O)O)C(C)C [QKRIRVRLSA]
–	–	–	–	–	25 (≈ 67.2 µg/mL)	CC(C)C[C@H](NC(=O)[C@H](CC(N)=O)NC(=O)[C@H](Cc1c[nH]c2ccccc12)NC(=O)[C@H](CCCN=C(N)N)NC(=O)[C@H](C)NC(=O)[C@H](CCCCN)NC(=O)[C@H](CCCCN)NC(=O)CNC(=O)[C@H](CC(C)C)NC(=O)[C@H](Cc1ccc(O)cc1)NC(=O)[C@H](Cc1ccc(O)cc1)NC(=O)CNC(=O)[C@H](Cc1c[nH]c2ccccc12)NC(=O)[C@H](CO)NC(=O)[C@H](CO)NC(=O)[C@H](Cc1c[nH]c2ccccc12)NC(=O)[C@H](CC(C)C)NC(=O)[C@H](CCCCN)NC(=O)[C@@H](NC(=O)[C@@H](NC(=O)[C@H](CC(C)C)NC(=O)[C@@H](N)CC(=O)O)[C@@H](C)O)[C@@H](C)O)C(=O)O [DLTTKLWSSWGYYLGKKARWNL]
> 40	10 (≈ 16.6 µg/mL)	–	–	–	–	CC[C@H](C)[C@H](NC(=O)[C@H](CCCN=C(N)N)NC(=O)[C@H](CCC(N)=O)NC(=O)[C@@H](NC(=O)[C@@H](NC(=O)[C@H](CCCN=C(N)N)NC(=O)[C@H](CCCCN)NC(=O)[C@@H](N)Cc1ccccc1)[C@@H](C)CC)C(C)C)C(=O)N[C@@H](CCCCN)C(=O)N[C@@H](CC(=O)O)C(=O)N[C@@H](CO)C(=O)N[C@@H](CC(C)C)C(=O)N[C@@H](CCCN=C(N)N)C(=O)O [FKRIVQRIKDSLR]
106 (≈ 256 µg/mL)	26.5 (≈ 64 µg/mL)	–	–	53 (≈ 128 µg/mL)	–	CC[C@H](C)[C@H](NC(=O)CN)C(=O)NCC(=O)N[C@@H](CCCCN)C(=O)N[C@@H](Cc1ccccc1)C(=O)N[C@@H](CC(C)C)C(=O)N[C@@H](Cc1cnc[nH]1)C(=O)N[C@@H](CO)C(=O)N[C@@H](C)C(=O)N[C@@H](CCCCN)C(=O)N[C@@H](CCCCN)C(=O)N1CCC[C@H]1C(=O)NCC(=O)N[C@@H](CCCCN)C(=O)N[C@@H](C)C(=O)N[C@@H](Cc1ccccc1)C(=O)N[C@H](C(=O)NCC(=O)N[C@@H](CCC(=O)O)C(=O)N[C@H](C(=O)N[C@@H](CCSC)C(=O)N[C@@H](CC(N)=O)C(=O)N[C@@H](CO)C(N)=O)[C@@H](C)CC)C(C)C [GIGKFLHSAKKPGKAFVGEIMNS]
5 (≈ 8.82 µg/mL)	2.5 (≈ 4.41 µg/mL)	–	–	–	–	CC(C)C[C@H](NC(=O)[C@H](CCCCN)NC(=O)[C@H](CC(C)C)NC(=O)[C@H](CC(C)C)NC(=O)[C@H](CCCCN)NC(=O)[C@H](CCCCN)NC(=O)[C@@H](N)CC(C)C)C(=O)NCC(=O)N[C@@H](CCCCN)C(=O)N[C@@H](CCCCN)C(=O)N[C@@H](CC(C)C)C(=O)N[C@@H](CC(C)C)C(=O)N[C@@H](CCCCN)C(=O)N[C@@H](CC(C)C)C(=O)N[C@@H](C)C(=O)NCC(=O)O [LKKLLKLGKKLLKLAG]
